Source: patent EP2775836B1, “METHODS FOR TREATING GOUT FLARES” (CymaBay Therapeutics, Inc., priority 2011, dated 2013)
Values belong to the compound of their own block, whether it stands above or below them.

How the values were obtained:
serum uric acid [1] = settings: monotherapy at 40, 80, 120, 160 and 240 mg/day, gout patients; cited from earlier work
[2] = Plasma concentration of (-)-halofenic acid after daily oral 400 mg arhalofenate (LC-MS/MS); assay type: in vivo, human
Description: Methods used in relation to FIGS. 1-2 showing the pharmacokinetic profile of (-)-halofenic acid were as follows:
Plasma proteins in human plasma samples containing of (-)-halofenic acid, an internal standard (I.S.) and heparin as the anticoagulant were precipitated with acetonitrile. The samples were vortex mixed, centrifuged and an aliquot was analyzed by reversed phase high performance liquid chromatography using a Phenomenex Polar RP column maintained at 45 °C. The mobile phase was nebulized using heated nitrogen in a Z-spray source/interface and the ionized compounds were detected using a tandem quadrupole mass spectrometer.
The plasma concentrations were rounded to the nearest one-tenth µg/mL before the calculations. Plasma samples with concentrations below the quantifiable limit of 1.0 µg/mL (BQL) were assigned values of zero.

IL-1β = IL-1β mRNA and secretion in LPS stimulated primary mouse macrophages; assay type: cell-based; settings: 75 and 150 µM, 1 hour before 100 ng/mL LPS for 8 hours
Description: Methods used in relation to FIGS. 4-5 showing effects of (-)-halofenic acid IL-1β were as follows:
Eight week-old male C57BL/6J mice were injected intra-peritoneally with 2.5 mL of 3% thioglycollate. Three days after injection, mice were sacrificed by cervical dislocation. Macrophages were harvested immediately by injecting 5 mL of PBS into the intra-peritoneal cavity, surgically exposing the intra-peritoneal cavity and aspirating the intra-peritoneal fluid with a 1 mL syringe. Macrophages from multiple animals were pooled and centrifuged at 1500 rpm, 10 min at 4 °C. Contaminating red blood cells were removed from the pellet by lysis with 10 mL RBC lysis buffer for 5min at room temperature, followed by centrifugation at 1500 rpm, 10 min at 4 °C. The cells were washed once and re-suspended in RPMI 1640, 10% FBS/0.1% Pen/Strep and plated into multi-well plates (1,000,000 cells/well for 24 well plates and 100,000 cells/well for 96 well plates). The cells were cultured for 30 hours, re-fed with fresh RPMI 1640, 0.5% FBS and incubated overnight. […]
The cells were harvested in Qiazol lysis solution for gene expression analysis. […] The Ct values for IL-1β were determined using ABI Sequence Detection Software. […] The fold change is then calculated using the formula 2^-[delta][delta]Ct. […]

serum uric acid [3] = test: Phase 1 multiple-dose study MBX102-2DM01011b: serum uric acid after daily oral dosing for 10 days; assay type: in vivo, human; settings: for Mean % change: Day 9 vs baseline; for Mean change at Day 9: change from baseline; for Mean uric acid at Day 9: healthy adult subjects
Description: Methods used in relation to FIG. 3 showing reduction in serum uric acid in subjects over time following once daily dosing with arhalofenate were as follows.
A single centre, Phase 1, placebo- and positive-controlled, double-blind, randomized, dose escalation study (MAD study, MBX102-2DM01011b) was conducted to evaluate the multiple-dose pharmacokinetics (PK) of (-)-halofenate administered as a daily dose orally for 10 days, at the protocol-specified doses in healthy adult subjects. A total of 119 subjects completed study treatment according to protocol: 6 subjects received MBX-102 100 mg/day for 10 days; 6 subjects received MBX-102 200 mg/day for 10 days; 9 subjects received MBX-102 400 mg/day for 10 days; 20 subjects received MBX-102 600 mg/day for 10 days; 10 subjects received MBX-102 600 mg Enteric Coated (EC) /day for 10 days; 9 subjects received MBX-102 800 mg EC/day for 10 days; 10 subjects received MBX-102 1000 mg EC/day for 10 days; 24 subjects received placebo treatment daily for 10 days; and 25 subjects received naproxen 500 mg b.i.d. monotherapy for 7 days. In this study, serum uric acid was measured at screening and on Days 1, 3, 5, 7, 9, 14, and 21.

[4] = system: high sensitivity C-Reactive Protein (hs-CRP); test: Phase 1 multiple-dose study M102-0507: change in hs-CRP in type 2 diabetic patients on Glynase; assay type: in vivo, human
Description: Data presented in FIGS. 6 and 7 were generated based on a single-center, Phase 1, randomized, single-blind, multiple-dose study (M102-0507) evaluating the effect of (-)-halofenate given to type 2 diabetic patients who were receiving a stable dose of Glynase® (micronized glyburide). Eligible patients were initially dosed for 3 days with Glynase® 3 mg/day, and if safety and tolerability were acceptable to the Investigator, the dose was increased to Glynase® 6 mg/day for 4 days, followed by 14 days of Glynase® 6 mg and either (-)-halofenate 400 mg or 600 mg administration until Day 21, the patients were discharged on Day 22.
In this study, change in high sensitivity C-Reactive Protein (hs-CRP) from baseline was one of the endpoints. […] At Day 22, the mean percentage changes in C-reactive protein compared to Day 1 were -21.1% and -32.9% in Group 1 ((-)-halofenate 400 mg) and Group 2 ((-)-halofenate 600 mg), respectively.

3T3-L1 adipocytes = test: Example 1: suppression of uric-acid induced inflammation in vitro; assay type: cell-based, murine; settings: 50-150 µM, uric acid 5 or 15 mg/dL, 3 or 7 days
Description: Differentiated murine 3T3-L1 adipocytes are cultured in vitro in 24 well plates. To the culture medium (-)-halofenic acid is added at a final concentration of 50- 150 µM prior to the addition of uric acid at 5 mg/dL or 15 mg/dL and the culture continued for 3 or 7 days. A parallel culture of cells is conducted in the presence of a vehicle such as dimethylsulfoxide (DMSO). At the end of the culture period media is removed, cells are isolated and messenger RNA prepared. The levels of secreted cytokines representing a panel of pro-inflammatory cytokines including but not restricted to monocyte chemoatractant protein-1 (MCP-1), tumor necrosis factor α (TNF-α), interlekin-1β, (IL-1β), interleukin-6 (IL-6) and interleukin-12 (Il-12) are determined in the media isolated from the cells using commercially available cytokine assay kits. The levels of gene expression for the mRNAs for a panel of pro-inflammatory cytokines including but not restricted to monocyte chemoatractant protein-1 (MCP-1), tumor necrosis factor α (TNF-α), interlekin-1β, (IL-1β), interleukin-6 (IL-6) and interleukin-12 (Il-12) are determined using real-time PCR. […] A similar study is also conducted in primary mouse macrophages and human umbilical vein endothelial cells.

[5] = 600 mg Enteric Coated (EC)/day for 10 days

SMILES: O=c1[nH]cnc2c(CN3C[C@H](CO)[C@@H](O)C3)c[nH]c12 [BCX4208, 7-(((3R,4R)-3-hydroxy-4-(hydroxymethyl)pyrrolidin-1-yl)methyl)-3H-pyrrolo[3,2-d]pyrimidin-4(5H)-one]
serum uric acid (serum uric acid [1]): rapidly and significantly reduced

intraday plasma concentration ([2]; Day 15 and Day 30, daily oral 400 mg arhalofenate, FIG. 2): relatively constant | half-life ([2]; plasma, daily oral 400 mg arhalofenate for 30 days, FIGS. 1-2): long half-life
SMILES: O=C(O)C(Oc1cccc(C(F)(F)F)c1)c1ccc(Cl)cc1 (single isomer, unassigned; (-)) [(-)-halofenic acid, (-)-4-chlorophenyl-(3-trifluoromethylphenoxy) acetic acid]
messenger RNA encoding the pro-inflammatory cytokine IL-1β (IL-1β; FIG. 4): lower the messenger RNA | secretion of the pro-inflammatory cytokine IL-1β (IL-1β; FIG. 5): lowering the secretion

SMILES: CC(=O)NCCOC(=O)[C@H](Oc1cccc(C(F)(F)F)c1)c1ccc(Cl)cc1 [(-)-halofenate, (-)-(R)-(4-chloro-phenyl)-(3-trifluoromethyl-phenoxy)-acetic acid 2-acetylamino-ethyl ester]
Mean % change (serum uric acid [3]; 400 mg/day orally for 10 days): -21% | Mean change at Day 9 (serum uric acid [3]; 400 mg/day orally for 10 days): -1.02 mg/dL | Mean uric acid at Day 9 (serum uric acid [3]; 400 mg/day orally for 10 days): 3.89 mg/dL | Mean % change (serum uric acid [3]; [5]): -30% | Mean change at Day 9 (serum uric acid [3]; [5]): -1.69 mg/dL | Mean uric acid at Day 9 (serum uric acid [3]; [5]): 3.92 mg/dL | Mean % change (serum uric acid [3]; 600 mg/day orally for 10 days): -33% | Mean change at Day 9 (serum uric acid [3]; 600 mg/day orally for 10 days): -1.65 mg/dL | Mean uric acid at Day 9 (serum uric acid [3]; 600 mg/day orally for 10 days): 3.40 mg/dL | Mean % change (serum uric acid [3]; 800 mg EC/day for 10 days): -32% | Mean change at Day 9 (serum uric acid [3]; 800 mg EC/day for 10 days): -1.77 mg/dL | Mean uric acid at Day 9 (serum uric acid [3]; 800 mg EC/day for 10 days): 3.83 mg/dL | Mean % change (serum uric acid [3]; 1000 mg EC/day for 10 days): -45% | Mean change at Day 9 (serum uric acid [3]; 1000 mg EC/day for 10 days): -2.44 mg/dL | Mean uric acid at Day 9 (serum uric acid [3]; 1000 mg EC/day for 10 days): 3.04 mg/dL | reduction in serum uric acid (serum uric acid [3]; all dose levels tested, dose dependent, over a period of time): gradual reduction | Day 22 hs-CRP ([4]; (-)-halofenate 600 mg/day Day 8-21 with Glynase 6 mg/day, type 2 diabetic patients): 4.4 | mean percentage change in C-reactive protein at Day 22 compared to Day 1 ([4]; Group 1: 400 mg/day Day 8-21 with Glynase 6 mg/day): -21.1% | Mean % change from Day 8 (Day 22 hs-CRP) ([4]; Group 2: 600 mg/day Day 8-21 with Glynase 6 mg/day, Day 8 = Glyburide only phase): -33.3% | expression and secretion of panel of pro-inflammatory cytokines (3T3-L1 adipocytes): reduced level of expression and consequently secretion | uptake of uric acid into 3T3-L1 adipocytes (3T3-L1 adipocytes): prevents the uptake of uric acid
